Laboratory results as given in paper PMC10972746, “Substrate-induced condensation activates plant TIR domain proteins” (Nature, 2024).
Changes are numbered by the printed parent chain.

How the values were obtained:
[1] = target: T1, RBA1–GFP (Arabidopsis thaliana, UniProt F4HT77); assay: NADase assay, HPLC at […] nm; NAD+-induced phase separation by confocal microscopy; assay type: biochemical; details: 100 uM NAD+, 10 mM MgCl2, pH 8.0, 25 °C, 16 h; condensates: 10 uM protein, NAD+ 0.2 mM
T1 construct: residues 1-191, GFP-tagged, pET-MBP-mGFP vector, E. coli BL21(DE3)
T1 sequence (F4HT77 1-191): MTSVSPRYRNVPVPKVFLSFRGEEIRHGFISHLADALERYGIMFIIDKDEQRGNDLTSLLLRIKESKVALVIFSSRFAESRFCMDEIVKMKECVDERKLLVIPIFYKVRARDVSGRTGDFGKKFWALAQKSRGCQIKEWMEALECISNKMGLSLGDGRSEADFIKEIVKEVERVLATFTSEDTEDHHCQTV

[2] = target: T2, TX14–GFP (Arabidopsis thaliana, UniProt F4ISS7, E57A/V58A/R59A/G60A/K61A/D62A); assay: NADase assay, HPLC at […] nm; assay type: biochemical; details: 100 uM NAD+, 10 mM MgCl2, pH 8.0, 25 °C, 16 h
T2 construct: gene At2g32140; residues 1-351, GFP-tagged, pET-MBP-mGFP vector, E. coli BL21(DE3)
T2 sequence (F4ISS7 1-351 E57A/V58A/R59A/G60A/K61A/D62A): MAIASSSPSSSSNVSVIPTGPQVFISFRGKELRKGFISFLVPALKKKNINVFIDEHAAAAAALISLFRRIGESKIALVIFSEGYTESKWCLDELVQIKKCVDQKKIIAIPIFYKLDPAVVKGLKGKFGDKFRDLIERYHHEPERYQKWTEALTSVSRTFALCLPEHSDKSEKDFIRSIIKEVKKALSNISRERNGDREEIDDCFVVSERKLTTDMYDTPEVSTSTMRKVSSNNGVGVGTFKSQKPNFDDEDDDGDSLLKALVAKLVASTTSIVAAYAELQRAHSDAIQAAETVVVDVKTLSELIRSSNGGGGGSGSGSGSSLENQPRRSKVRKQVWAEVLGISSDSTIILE

[3] = target: T3, TX14–GFP (Arabidopsis thaliana, UniProt F4ISS7, S38D); assay: NADase assay, HPLC at […] nm; assay type: biochemical; details: 100 uM NAD+, 10 mM MgCl2, pH 8.0, 25 °C, 16 h; 40 uM protein
T3 construct: gene At2g32140; residues 1-351, GFP-tagged, pET-MBP-mGFP vector, E. coli BL21(DE3)
T3 sequence (F4ISS7 1-351 S38D): T2 sequence (F4ISS7 1-351 E57A/V58A/R59A/G60A/K61A/D62A) with S38D, A57E, A58V, A59R, A60G, A61K, A62D

[4] = target: T4, RPP1-TIR–GFP (RPP1-TIR) (Arabidopsis thaliana, UniProt Q9ZSN5); assay: NADase assay, HPLC at […] nm; NAD+-induced phase separation by confocal microscopy; assay type: biochemical; details: 100 uM NAD+, 10 mM MgCl2, pH 8.0, 25 °C, 16 h; droplets: 1 mM NAD+, 25 uM protein, 5% PEG 3,350
T4 construct: TIR domain residues 1-254, GFP-tagged, pET-MBP-mGFP vector, E. coli BL21(DE3); an untagged 60-254 form (GST cut, Sf21) was also made
T4 sequence (Q9ZSN5 1-254): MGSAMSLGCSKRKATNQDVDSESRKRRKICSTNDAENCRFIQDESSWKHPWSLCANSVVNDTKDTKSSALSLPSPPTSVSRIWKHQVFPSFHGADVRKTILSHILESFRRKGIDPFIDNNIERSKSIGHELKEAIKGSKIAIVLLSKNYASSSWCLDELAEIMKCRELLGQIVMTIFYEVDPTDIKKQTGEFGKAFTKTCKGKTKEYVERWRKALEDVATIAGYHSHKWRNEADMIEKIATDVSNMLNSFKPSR

[5] = target: T5, TX14–GFP (Arabidopsis thaliana, UniProt F4ISS7); assay: as above; assay type: biochemical; details: 100 uM NAD+, 10 mM MgCl2, pH 8.0, 25 °C, 16 h; condensates: 10 uM protein, NAD+ 0.2 mM
T5 construct: gene At2g32140; residues 1-351, GFP-tagged, pET-MBP-mGFP vector, E. coli BL21(DE3)
T5 sequence (F4ISS7 1-351): T2 sequence (F4ISS7 1-351 E57A/V58A/R59A/G60A/K61A/D62A) with A57E, A58V, A59R, A60G, A61K, A62D

[6] = target: T5, TX14–GFP; assay: ATP-induced phase separation, confocal microscopy; details: 10 uM protein, 25 °C, 30 min; indirect read-out of binding
[7] = target: T4, RPP1-TIR–GFP (RPP1-TIR); assay: ATP-induced phase separation, confocal microscopy and turbidity; details: 1 mM ATP, 25 uM protein, 5% PEG 3,350, pH 8.0, 25 °C, 30 min; indirect read-out of binding
[8] = target: T1, RBA1–GFP; assay: ATP-induced phase separation, confocal microscopy; details: 10 uM protein, 25 °C, 30 min; indirect read-out of binding

Row | SMILES | NADase assay, HPLC at 260 nm; NAD+-induced phase separation by confocal microsco [1] | relative NADase activity [2] | relative NADase activity [3] | NADase assay, HPLC at 260 nm; NAD+-induced phase separation by confocal microsco [4] | NADase assay, HPLC at 260 nm; NAD+-induced phase separation by confocal microsco [5] | ATP-induced phase separation, confocal microscopy [6] | ATP-induced phase separation, confocal microscopy and turbidity [7] | ATP-induced phase separation, confocal microscopy [8]
1 | NC(=O)c1ccc[n+]([C@@H]2O[C@H](COP(=O)(O)OP(=O)(O)OC[C@H]3O[C@@H](n4cnc5c(N)ncnc54)[C@H](O)[C@@H]3O)[C@@H](O)[C@H]2O)c1 [NAD^+] | wild-type RPP1-TIR, RBA1 and TX14 proteins nearly completely consumed the NAD^+ substrate | NAD^+-hydrolysing activity was significantly reduced in the corresponding BB-loop mutant proteins | the mutations of the AE interface impaired the NADase activity of these TIR domain proteins | wild-type RPP1-TIR, RBA1 and TX14 proteins nearly completely consumed the NAD^+ substrate | wild-type RPP1-TIR, RBA1 and TX14 proteins nearly completely consumed the NAD^+ substrate | – | – | –
2 | Nc1ncnc2c1ncn2[C@@H]1O[C@H](COP(=O)(O)OP(=O)(O)OP(=O)(O)O)[C@@H](O)[C@H]1O [ATP] | – | – | – | – | – | ATP and NAD^+/ATP induced phase separation of the TIR domain protein RBA1 and TX14 | ATP induced phase separation of the RPP1-TIR–GFP protein | ATP and NAD^+/ATP induced phase separation of the TIR domain protein RBA1 and TX14
